From US20150344457A1, “METHODS OF INHIBITING PRMT5” (EPIZYME, INC., priority 2012, published 2015) come the findings set out here.

Each structure is given as a SMILES string.

The experiment deals with T1, PRMT5/MEP50 (Homo sapiens, UniProt O14744).
T1 construct: Expressed full-length human Flag-PRMT5/6His-MeP50 protein complex was purified; made in house; host or cells: Spodoptera frugiperda (SF9) insect cells, baculovirus (pDEST8)
T1 sequence (O14744 with tags, fused parts or gaps): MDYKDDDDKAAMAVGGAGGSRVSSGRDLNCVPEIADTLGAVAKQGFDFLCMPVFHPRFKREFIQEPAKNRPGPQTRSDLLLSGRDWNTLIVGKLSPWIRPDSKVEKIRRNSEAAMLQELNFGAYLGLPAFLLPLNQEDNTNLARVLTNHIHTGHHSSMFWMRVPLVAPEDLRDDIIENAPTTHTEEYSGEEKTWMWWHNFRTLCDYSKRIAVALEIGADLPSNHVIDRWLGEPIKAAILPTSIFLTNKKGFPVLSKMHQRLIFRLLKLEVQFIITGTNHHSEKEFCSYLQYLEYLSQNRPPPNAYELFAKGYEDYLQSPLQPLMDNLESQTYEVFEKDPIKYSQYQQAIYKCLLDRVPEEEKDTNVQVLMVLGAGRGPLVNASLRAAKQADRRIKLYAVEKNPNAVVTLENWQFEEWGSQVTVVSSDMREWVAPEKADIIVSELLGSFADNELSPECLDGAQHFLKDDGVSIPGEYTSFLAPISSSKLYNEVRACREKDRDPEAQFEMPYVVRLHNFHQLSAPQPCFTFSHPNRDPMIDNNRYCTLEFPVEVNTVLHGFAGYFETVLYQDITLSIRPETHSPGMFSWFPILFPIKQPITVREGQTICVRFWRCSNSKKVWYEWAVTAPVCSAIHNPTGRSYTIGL
T1 sequence (Q9BQA1 with tags, fused parts or gaps partner limits assumed): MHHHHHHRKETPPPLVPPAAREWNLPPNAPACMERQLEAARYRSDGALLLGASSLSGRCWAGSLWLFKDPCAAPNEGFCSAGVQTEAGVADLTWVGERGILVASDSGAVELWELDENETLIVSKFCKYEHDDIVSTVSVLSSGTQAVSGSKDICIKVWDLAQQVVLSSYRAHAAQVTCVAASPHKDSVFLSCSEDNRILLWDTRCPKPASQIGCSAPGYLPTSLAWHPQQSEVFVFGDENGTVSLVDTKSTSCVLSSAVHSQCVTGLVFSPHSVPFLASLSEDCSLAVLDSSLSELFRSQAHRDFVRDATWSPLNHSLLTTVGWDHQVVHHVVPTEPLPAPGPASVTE
In words: PRMT5 Biochemical Assay (PRMT5/MEP50 enzyme assay on peptide substrate, 3H-SAM Flashplate). As to conditions: Table D-2; read-out: Biochemical IC50.
On to `CC1Cc2ccccc2CN1CC(O)COc1cccc(CNC2CCCC2)c1` (stereo not shown) [Compound D51], for which the IC50 is greater than 40 µM.
Next, `OC(COc1cccc(C2CCCCC2)c1)CN1CCc2ccccc2C1` (stereo not shown) [Compound D52]: 1 to 10 µM.
For `COc1cccc2c1CCN(CC(O)COc1cccc(CNC3CCCC3)c1)C2` (stereo not shown) [Compound D54] the value was greater than 40 µM; for `OC(COc1cccc(-c2cccc(Oc3ccccc3)c2)c1)CN1CCc2ccccc2C1` (stereo not shown) [Compound D55], 1 to 10 µM.
On to `CC1CN(CC(O)COc2cccc(CNC3CCCC3)c2)Cc2ccccc21` (stereo not shown) [Compound D56], for which the IC50 is greater than 40 µM.
`OC(COc1cccc(C2=CCCCC2)c1)CN1CCc2ccccc2C1` (stereo not shown) [Compound D57]: the IC50 was 1 to 10 µM.
For `CN(C)S(=O)(=O)c1cccc(-c2cccc(OCC(O)CN3CCc4ccccc4C3)c2)c1` (stereo not shown) [Compound D61] the value was greater than 40 µM; for `COc1ccc(Cl)c(-c2cccc(OCC(O)CN3CCc4ccccc4C3)c2)c1` (stereo not shown) [Compound D64], 1 to 10 µM; for `Cn1cnc2ccc(N3CCCC(OCC(O)CN4CCc5ccccc5C4)C3)cc21` (stereo not shown) [Compound D66], 0.101 to 1 µM.
For the molecule `OC(COc1cccc(-c2ccc(Cl)cc2)c1)CN1CCc2ccccc2C1` (stereo not shown) [Compound D69], the IC50 was 1 to 10 µM.
Turning to `Oc1ccc(-c2cccc(OCC(O)CN3CCc4ccccc4C3)c2)cc1F` (stereo not shown) [Compound D70], the half-maximal inhibitory concentration (IC50) lay within 1 to 10 µM.
For the molecule `COc1ccccc1-c1cccc(OCC(O)CN2CCc3ccccc3C2)c1` (stereo not shown) [Compound D71], the IC50 lay in the range of 1 to 10 µM.
Next, `OCc1ccc(-c2cccc(OCC(O)CN3CCc4ccccc4C3)c2)cc1` (stereo not shown) [Compound D73]: 1 to 10 µM; `OC(COc1cccc(-c2cncc(F)c2)c1)CN1CCc2ccccc2C1` (stereo not shown) [Compound D76]: 1 to 10 µM.
For `OC(COc1cccc(-c2ccc(F)cc2)c1)CN1CCc2ccccc2C1` (stereo not shown) [Compound D77], the IC50 was in the range of 1 to 10 µM.
Consider `Cc1ccc(-c2cccc(OCC(O)CN3CCc4ccccc4C3)c2)cn1` (stereo not shown) [Compound D78], for which the IC50 was in the range of 1 to 10 µM.
Next, `O=C(NC1CCOCC1)c1cccc(NCC(O)CN2CCc3ccccc3C2)c1` (stereo not shown) [Compound D79]: 10 to 40 µM.
As for `OC(COc1cccc(-c2cccc(C(F)(F)F)c2)c1)CN1CCc2ccccc2C1` (stereo not shown) [Compound D87], the half-inhibitory concentration (IC50) lay within 1 to 10 µM.
Next, `OC(COc1cccc(-c2cccc(Cl)c2)c1)CN1CCc2ccccc2C1` (stereo not shown) [Compound D91]: 1 to 10 µM.
For `Oc1ccc(-c2cccc(OCC(O)CN3CCc4ccccc4C3)c2)cc1` (stereo not shown) [Compound D96] the value was 1 to 10 µM; for `OC(COc1cccc(-c2ccncc2)c1)CN1CCc2ccccc2C1` (stereo not shown) [Compound D97], 1 to 10 µM.
Take `OC(COc1cccc(-c2ccccn2)c1)CN1CCc2ccccc2C1` (stereo not shown) [Compound D98]: the IC50 lay in the range of 1 to 10 µM.
On to `CN(CC(O)CN1CCc2ccccc2C1)c1cccc(C(=O)NC2CCOCC2)c1` (stereo not shown) [Compound D99], for which the IC50 lay in the range of 10 to 40 µM.
On to `COc1cccc2c1CN(CC(O)COc1cccc(-c3ccc4ncn(C)c4c3)c1)CC2` (stereo not shown) [Compound D100], for which the IC50 lay in the range of 1 to 10 µM.
For `CC1CN(CC(O)COc2cccc(-c3ccc4ncn(C)c4c3)c2)Cc2ccccc21` (stereo not shown) [Compound D101] the value was 1 to 10 µM.
Regarding `Cn1cc2cc(-c3cccc(OCC(O)CN4CCc5ccccc5C4)c3)ccc2n1` (stereo not shown) [Compound D115], the concentration for half-maximal inhibition (IC50) was 1 to 10 µM.
For `Cn1cnc2ccc(-c3nccc(NCC(O)CN4CCc5ccccc5C4)n3)cc21` (stereo not shown) [Compound D120] the value was 1 to 10 µM; for `CC1Cc2ccccc2CN1CC(O)COc1cccc(-c2ccc3ncn(C)c3c2)c1` (stereo not shown) [Compound D122], 1 to 10 µM; for `OC(COc1cccc(-c2cc(Cl)cc(C(F)(F)F)c2)c1)CN1CCc2ccccc2C1` (stereo not shown) [Compound D128], 1 to 10 µM.
`OC(COc1cccc(-c2ccc(C(F)(F)F)cc2)c1)CN1CCc2ccccc2C1` (stereo not shown) [Compound D133]: the IC50 lay in the range of 1 to 10 µM.
Take `OC(COc1cccc(-c2cncnc2)c1)CN1CCc2ccccc2C1` (stereo not shown) [Compound D140]: the half-inhibitory concentration (IC50) is 1 to 10 µM.
